The text below walks through data of patent US20060239915A1, “Labeled macrophage scavenger receptor antagonists for imaging cardiovascular diseases” (priority 2002, published 2006).

Read-outs that look alike come from different tables or passages of the source.

The target in assay [1] is T1, human SR-A on CHO-SRA cells (Homo sapiens, UniProt P21757).
T1 construct: expressed in transfected cells; host or cells: CHO (hamster ovary) cells, line CHO-SRA
T1 sequence (P21757 1-451): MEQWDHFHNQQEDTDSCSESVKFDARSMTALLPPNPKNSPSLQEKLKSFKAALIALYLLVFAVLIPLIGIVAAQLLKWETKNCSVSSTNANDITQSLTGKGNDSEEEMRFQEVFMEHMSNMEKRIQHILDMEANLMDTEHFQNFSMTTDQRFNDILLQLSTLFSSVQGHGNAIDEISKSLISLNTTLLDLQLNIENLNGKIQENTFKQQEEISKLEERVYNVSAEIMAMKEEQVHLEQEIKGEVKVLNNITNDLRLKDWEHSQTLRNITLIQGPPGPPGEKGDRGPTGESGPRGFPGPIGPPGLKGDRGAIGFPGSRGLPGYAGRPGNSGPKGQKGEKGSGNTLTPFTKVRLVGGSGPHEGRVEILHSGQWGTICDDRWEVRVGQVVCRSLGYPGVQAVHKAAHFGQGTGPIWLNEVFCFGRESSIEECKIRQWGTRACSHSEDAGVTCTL
Briefly: Cell competition assay with 125I-imaging agent 2, CHO-SRA cells. The following applies: competition for binding of 125I imaging agent 2, CHO-SRA cells, n=3; read-out: Mean IC50 (one site competition). The procedure: (§1) Experiments were carried out in THP-1 and CHO-SRA cells to assess competition for binding of ^125I imaging agent 2 by acLDL, oxLDL and non-radioactive imaging agent 2.
CHO-SRA cells are adherent hamster ovary cells expressing human SR-A and were cultured in Hams F-12 medium containing penicillin/streptomycin, 2 mM glutamine, HEPES buffer (7 ml per 500 ml media), 3% filter-sterilised lipoprotein-deficient serum (LPDS; Sigma cat. no. S5394), 40 μM compactin/mevastatin (Sigma cat. no. M2537), 250 μM mevalonic acid lactone (Sigma cat. no. M4667), and 3 μg/ml acetylated LDL (AcLDL; Biogenesis, Cat no. 5685-3404). For assays with ^125I-acLDL, cells were seeded at 1×10^5 cells/well/ml in 24 well plates 24 hours prior to assay. For assays with ^125I imaging agent 2, CHO-SRA cells were seeded at 1.5×10^5 cells/well/ml in 24 well plates 24 hours prior to assay.

For another assay, the target named is T2, MSRA on THP-1 cells (Homo sapiens, UniProt P21757).
T2 construct: Cells became adherent and expressed MSRA; endogenous in cells; host or cells: THP-1 (ECACC), differentiated with PMA
T2 sequence (P21757 1-451): T1 sequence (P21757 1-451)
The experiment in a line: Cell competition assay with 125I-imaging agent 2, THP-1 cells. Particulars: competition for binding of 125I imaging agent 2, THP-1 cells, n=3. The procedure:
Experiments were carried out on THP-1 cells. THP-1 cells (human monocyte ECACC) are suspension cells and were cultured in RPMI-1640 medium (Sigma, Cat no. R0883) containing penicillin/streptomycin (Sigma, Cat no. P4458), 2 mM glutamine (Sigma, Cat no. G7513) and 10% foetal bovine serum (FBS; Sigma, Cat no. F-7524). Cells were routinely passaged at 2×10^5 cells/ml in 162 cm^2 flasks. For assays with ^125I-acLDL, cells were seeded at 1×10^5 cells/well/ml in 24 well plates 4-6 days prior to assay and 400 ng/ml phorbol myristate acetate (PMA) added to differentiate THP-1 cells. Cells became adherent and expressed MSRA. For assays with ^125I imaging agent 2, THP-1 cells were seeded at 1.5×10^5 cells/well/ml in 24 well plates 4-6 days prior to assay with 400 ng/ml PMA.
as §1
THP-1 cells were cultured as described in Example 13 above.

For the molecule `O=C(Nc1ccc(I)cc1)c1cc(Br)ccc1NS(=O)(=O)c1ccc(Cl)cc1` [non-radioactive imaging agent 2], the IC50 in assay [1] is 30 ± 12 µM; on MSRA on THP-1 cells (read-out: Mean IC50 (two site kinetics, first value)) it was 0.079 ± 0.02 µM; on MSRA on THP-1 cells (read-out: Mean IC50 (two site kinetics, second value)) it was 14.5 ± 5.8 µM.

By IC50 is commonly meant the point on the concentration scale where inhibition reaches its midpoint.
